We go through 45 compounds from patent US10604523B2, “1-aryl-4-methyl-[1,2,4]triazolo[4,3-a]quinoxaline derivatives” (Janssen Pharmaceutica NV, priority 2011, dated 2020).

Molecules are shown by their SMILES. Read-outs that look alike come from different tables or passages of the source.

The target in test [1] is T1, Rat recombinant PDE10A (rPDE10A2) (Rattus norvegicus, UniProt Q9QYJ6).
T1 construct: made in house; host or cells: Sf9 insect cells (baculovirus)
T1 sequence (Q9QYJ6 1-794): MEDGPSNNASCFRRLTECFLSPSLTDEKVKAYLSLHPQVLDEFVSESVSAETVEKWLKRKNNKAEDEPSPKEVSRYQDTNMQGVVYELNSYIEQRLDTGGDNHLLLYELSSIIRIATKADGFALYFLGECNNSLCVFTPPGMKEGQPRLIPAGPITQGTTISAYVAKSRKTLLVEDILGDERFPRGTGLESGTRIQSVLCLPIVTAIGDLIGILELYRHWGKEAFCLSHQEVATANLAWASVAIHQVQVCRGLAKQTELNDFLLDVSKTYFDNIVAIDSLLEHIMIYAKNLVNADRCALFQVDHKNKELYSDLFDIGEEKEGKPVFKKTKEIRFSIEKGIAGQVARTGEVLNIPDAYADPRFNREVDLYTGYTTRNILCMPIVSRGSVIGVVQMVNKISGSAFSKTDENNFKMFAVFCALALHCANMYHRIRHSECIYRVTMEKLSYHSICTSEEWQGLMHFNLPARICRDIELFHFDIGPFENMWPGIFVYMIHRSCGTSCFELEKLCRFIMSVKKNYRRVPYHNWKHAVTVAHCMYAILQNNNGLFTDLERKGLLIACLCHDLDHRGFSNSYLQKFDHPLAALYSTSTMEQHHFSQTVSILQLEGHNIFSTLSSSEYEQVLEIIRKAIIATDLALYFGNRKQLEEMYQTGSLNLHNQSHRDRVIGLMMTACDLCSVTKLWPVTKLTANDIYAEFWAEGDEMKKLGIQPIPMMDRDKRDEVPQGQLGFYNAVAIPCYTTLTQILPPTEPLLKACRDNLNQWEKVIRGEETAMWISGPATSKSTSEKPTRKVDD
Kind of test: In vitro assay PDE10A (SPA, 3H-cAMP). The format is biochemical. The following applies: for IC50: read-out: PIC50 PDE10 (converted).

Test [2] relates to Apomorphine-induced agitation. In words: Reversal of Apomorphine-induced Agitation in Rats (APO). In kind it is in vivo, rat. The following applies: for SC Dose at max effect / SC Max effect (cumulative agitation score over 60 min) / SC LAD (lowest active dose): subcutaneous route; for SC Max effect (cumulative agitation score over 60 min) / PO Max effect (cumulative agitation score over 60 min): apomorphine 1.0 mg/kg i.v.; for SC LAD (lowest active dose) / PO LAD (lowest active dose): lowest dose at which ≥67% tested animals respond.
Procedure: Apomorphine (1.0 mg/kg, i.v.)-induced agitation was scored every 5 min over the first hour after injection of apomorphine. The score system was: (3) pronounced, (2) moderate, (1) slight, and (0) absent. […] For the present purpose, the cumulative agitation score over the whole 60-min observation period was used as a measure to describe the maximum effect (Max effect).

[3] abbreviates: -log IC50 expressed in mol/L, rPDE10A2, 60 nM cAMP.

Regarding `Cc1nc2ccc(CN(C)C)cc2n2c(-c3cncc(OCC4CC4)c3)nnc12` [Compound B-205], in test [1], the IC50 was > 10000 nM.

For `CCCCOc1ccc(Cl)c(-c2nnc3c(C)nc4ccc(CNC(C)C)cc4n23)c1` [Compound B-149], the “PIC50 PDE10” value in test [1] (setting [3]) was 5.38. Take `CCCCOc1cncc(-c2nnc3c(C)nc4ccc(CNCC)cc4n23)c1` [Compound B-150]: the IC50 in test [1] is > 10000 nM. For the compound `Cc1nc2ccc(CN3CCOCC3)cc2n2c(-c3cc(OC(C)C)ccc3Cl)nnc12` [Compound B-58], the “PIC50 PDE10” value in test [1] (setting [3]) was determined as 5.73. On to `Cc1nc2ccc(CN3CCOCC3)cc2n2c(-c3c(F)cccc3Cl)nnc12` [Compound B-23, 1-(2-Chloro-6-fluorophenyl)-4-methyl-8-(morpholin-4-ylmethyl)[1,2,4]triazolo[4,3-a]quinoxaline], for which, in test [2], the SC Dose at max effect amounted to 40 mg/kg, the “SC Max effect (cumulative agitation score over 60 min)” value was 1 and the SC LAD (lowest active dose) was determined as 0.63 mg/kg.

For the compound `Cc1nc2ccc(CN(C)C)cc2n2c(-c3ccccc3Cl)nnc12` [Compound B-107], in test [1], the IC50 is 107 nM. In test [2], the SC Dose at max effect is 10 mg/kg, the “SC Max effect (cumulative agitation score over 60 min)” value came out at 20.5 and the SC LAD (lowest active dose) was > 10 mg/kg. As to `CCNC(=O)c1ccc2nc(C)c3nnc(-c4cccnc4C)n3c2c1` [Compound B-68], in test [1] (setting [3]), the IC50 is 178 nM. In test [2], the SC Dose at max effect was 10 mg/kg, the “SC Max effect (cumulative agitation score over 60 min)” value was 22 and the SC LAD (lowest active dose) is > 10 mg/kg.

As to `Cc1nc2ccc(CN3CCOCC3)cc2n2c(-c3cncc(OCC4CC4)c3)nnc12` [Compound B-193], the “PIC50 PDE10” value in test [1] (setting [3]) turned out to be 5.44.

Consider `CCCCOc1ccc(Cl)c(-c2nnc3c(C)nc4ccc(CNC)cc4n23)c1` [Compound B-192], for which the “PIC50 PDE10” value in test [1] (setting [3]) worked out at 5.04. Take `COc1ccc(Cl)c(-c2nnc3c(C)nc4ccc(CN5CCOCC5)cc4n23)c1` [Compound B-84]: the IC50 in test [1] (setting [3]) was 105 nM. Further, in test [2], the PO Dose at Max Effect came out at 10 mg/kg, the “PO Max effect (cumulative agitation score over 60 min)” value came out at 21 and the PO LAD (lowest active dose) was > 10 mg/kg. For `COC1CCN(Cc2ccc3nc(C)c4nnc(-c5ccccc5Cl)n4c3c2)CC1` [Compound B-93], the “PIC50 PDE10” value in test [1] (setting [3]) is reported as 7.41. Moreover, in test [2], the SC Dose at max effect amounted to 10 mg/kg, the “SC Max effect (cumulative agitation score over 60 min)” value was determined as 7 and the SC LAD (lowest active dose) turned out to be 10 mg/kg. Regarding `Cc1nc2ccc(CN3CCOCC3)cc2n2c(-c3ccccc3Cl)nnc12` [Compound B-19, 1-(2-Chlorophenyl)-4-methyl-8-(morpholin-4-ylmethyl)[1,2,4]triazolo[4,3-a]-quinoxaline], in test [2], the SC Dose at max effect was 5 mg/kg, the “SC Max effect (cumulative agitation score over 60 min)” value is reported as 14 and the SC LAD (lowest active dose) came to 5 mg/kg. With `Cc1nc2ccc(CNC(C)C)cc2n2c(-c3cncc(OCC4CC4)c3)nnc12` [Compound B-210], in test [1], the IC50 was 1450 nM. For `CCCCOc1ccc(F)c(-c2nnc3c(C)nc4cc(C#N)ccc4n23)c1` [Compound B-176], the IC50 in test [1] was > 10000 nM. Consider `CCNCc1ccc2nc(C)c3nnc(-c4cc(OC(C)C)ccc4Cl)n3c2c1` [Compound B-148], for which the “PIC50 PDE10” value in test [1] (setting [3]) was found to be 5.07. For `CCNC(=O)c1ccc2nc(C)c3nnc(-c4c(Cl)cccc4Cl)n3c2c1` [Compound B-33], in test [1] (setting [3]), the IC50 was 12.3 nM. Turning to `Cc1nc2ccc(CN3CCCC(O)C3)cc2n2c(-c3ccccc3Cl)nnc12` (centres unmarked) [Compound B-62], the IC50 in test [1] is 19.5 nM. Further, in test [2], the SC Dose at max effect worked out at 10 mg/kg, the “SC Max effect (cumulative agitation score over 60 min)” value is on record as 21 and the SC LAD (lowest active dose) is > 10 mg/kg. In the case of `CCCOc1ccc(Cl)c(-c2nnc3c(C)nc4ccc(Br)cc4n23)c1` [Compound B-92], in test [1], the IC50 was 468 nM. Same read-out and setting: next, `CCCCOc1cncc(-c2nnc3c(C)nc4ccc(CNC)cc4n23)c1` [Compound B-200]: > 10000 nM. With `Cc1nc2ccc(CN3CCC(O)C3)cc2n2c(-c3ccccc3Cl)nnc12` (centres unmarked) [Compound B-57], the IC50 in test [1] is 18.2 nM. Also, in test [2], the SC Dose at max effect was found to be 10 mg/kg, the “SC Max effect (cumulative agitation score over 60 min)” value worked out at 22 and the SC LAD (lowest active dose) is > 10 mg/kg. For the compound `Cc1nc2ccc(C(=O)NCc3ccccn3)cc2n2c(-c3ccccc3Cl)nnc12` [Compound B-35], the IC50 in test [1] (setting [3]) is 8.32 nM. In test [2], the PO Dose at Max Effect is 10 mg/kg, the “PO Max effect (cumulative agitation score over 60 min)” value is 22 and the PO LAD (lowest active dose) is > 10 mg/kg.

Take `CCNC(=O)c1ccc2nc(C)c3nnc(-c4cnccc4C)n3c2c1` [Compound B-109]: the IC50 in test [1] was 851 nM. Consider `COCCOc1cncc(-c2nnc3c(C)nc4ccc(CN5CCOCC5)cc4n23)c1` [Compound B-203], for which, in test [1] (setting [3]), the “PIC50 PDE10” value was 5.11.

`CCOC(=O)c1ccc2c(c1)nc(C)c1nnc(-c3ccccc3)n12` [Compound B-2b, Ethyl 4-methyl-1-phenyl[1,2,4]triazolo[4,3-a]quinoxaline-7-carboxylate]: the “PIC50 PDE10” value in test [1] (setting [3]) is listed as 5.57. Regarding `Cc1nc2ccc(CN3CCCC(CO)C3)cc2n2c(-c3ccccc3Cl)nnc12` (centres unmarked) [Compound B-110], the IC50 in test [1] was 44.7 nM. Also, in test [2], the SC Dose at max effect was 10 mg/kg, the “SC Max effect (cumulative agitation score over 60 min)” value was found to be 21 and the SC LAD (lowest active dose) was > 10 mg/kg. As to `CCNCc1ccc2nc(C)c3nnc(-c4ccccc4Cl)n3c2c1` [Compound B-20, N-{[1-(2-Chlorophenyl)-4-methyl[1,2,4]triazolo[4,3-a]quinoxalin-8-yl]methyl}-ethanamine], in test [2], the SC Dose at max effect is 10 mg/kg, the “SC Max effect (cumulative agitation score over 60 min)” value stood at 21 and the SC LAD (lowest active dose) was > 10 mg/kg.

With `CCNCc1ccc2nc(C)c3nnc(-c4cc(OCC)ccc4Cl)n3c2c1` [Compound B-151a], in test [1] (setting [3]), the “PIC50 PDE10” value is on record as 6.04. Take `CCCOc1ccc(Cl)c(-c2nnc3c(C)nc4ccc(CNCC)cc4n23)c1` [Compound B-111]: the IC50 in test [1] is 1780 nM. In the case of `CCNC(=O)c1ccc2nc(C)c3nnc(-c4cccnc4)n3c2c1` [Compound B-127], the IC50 in test [1] (setting [3]) is 1820 nM. On to `CCCCOc1ccc(F)c(-c2nnc3c(C)nc4cc(Br)ccc4n23)c1` [Compound B-175], for which the IC50 in test [1] was > 10000 nM. In the case of `CCCOc1ccc(Cl)c(-c2nnc3c(C)nc4ccc(CN(C)C)cc4n23)c1` [Compound B-112], the IC50 in test [1] was 1480 nM. Take `CCCCOc1cncc(-c2nnc3c(C)nc4ccc(CNC(C)C)cc4n23)c1` [Compound B-153]: the IC50 in test [1] (setting [3]) is > 10000 nM. Same read-out and setting: next, `CCCCOc1cc(-c2nnc3c(C)nc4ccc(CN5CCOCC5)cc4n23)cnc1Cl` [Compound B-202]: > 10000 nM. Same read-out and setting: next, `CCOC(=O)c1ccc2nc(C)c3nnc(-c4ccccc4)n3c2c1` [Compound B-2a, Ethyl 4-methyl-1-phenyl[1,2,4]triazolo[4,3-a]quinoxaline-8-carboxylate]: 295 nM. With `Cc1nc2ccc(CNCc3ccccc3)cc2n2c(-c3ccccc3Cl)nnc12` [Compound B-99], the “PIC50 PDE10” value in test [1] (setting [3]) was 7.3. Regarding `CCNC(=O)c1ccc2nc(C)c3nnc(-c4cccnc4)n3c2c1` [Compound B-143], the IC50 in test [1] (setting [3]) was 1350 nM. Same read-out and setting: next, `CCNCc1ccc2nc(C)c3nnc(-c4cncc(OCC5CC5)c4)n3c2c1` [Compound B-211]: > 10000 nM. As to `CCCCOc1ccc(F)c(-c2nnc3c(C)nc4ccc(C#N)cc4n23)c1` [Compound B-120], in test [1], the IC50 was 3550 nM. Same read-out and setting: then `CCCOc1cncc(-c2nnc3c(C)nc4ccc(CNCC)cc4n23)c1` [Compound B-178], with > 10000 nM.

With `CCCCOc1cncc(-c2nnc3c(C)nc4ccc(CN5CCOCC5)cc4n23)c1.Cl` [Compound B-17a, 1-(5-Butoxypyridin-3-yl)-4-methyl-8-(morpholin-4-ylmethyl) [1,2,4]triazolo[4,3-a]quinoxaline hydrochloride], in test [2], the SC Dose at max effect worked out at 40 mg/kg, the “SC Max effect (cumulative agitation score over 60 min)” value stood at 23 and the SC LAD (lowest active dose) is > 40 mg/kg. With `CCCCOc1ccc(Cl)c(-c2nnc3c(C)nc4ccc(CNCC)cc4n23)c1` [Compound B-101], in test [1], the IC50 is 5500 nM.

`CCCCOc1ccc(F)c(-c2nnc3c(C)nc4ccc(Br)cc4n23)c1` [Compound B-95]: the IC50 in test [1] is 1740 nM. Same read-out and setting: next, `CCNC(=O)c1ccc2nc(C)c3nnc(-c4cncc(OC)c4)n3c2c1` [Compound B-80]: 741 nM. Regarding `Cc1nc2ccc(CN(C)C)cc2n2c(-c3cc(OC(C)C)ccc3Cl)nnc12` [Compound B-141], in test [1] (setting [3]), the “PIC50 PDE10” value turned out to be 5.8. Still for that read-out and setting: then `CCCOc1cncc(-c2nnc3c(C)nc4ccc(CN5CCOCC5)cc4n23)c1` [Compound B-119], with 5.21.
